The fraction remaining is what is left of the initial amount, in per cent.

Consider two compounds from paper PMC10300102, “In vivo inhibition of nuclear ACE2 translocation protects against SARS-CoV-2 replication and lung damage through epigenetic imprinting” (Nature Communications, 2023).

A short description of this data set: In vitro monkey plasma assay. It counts as in vitro ADME, cynomolgus monkey. The following applies: for remaining at 0.25 h, 2 µM: time 15 min; for remaining at 0.5 h, 2 µM: time 30 min; for remaining at 1 h, 2 µM: time 60 min; for remaining at 2 h, 2 µM: time 120 min. The procedure:
Briefly, pooled frozen plasma was thawed at 37 °C prior to experiments. Plasma was centrifuged at 3720 x g for 5 min and any clots were removed. All blanks and working solutions were aliquoted on an Apricot automation workstation (2 μL/well of working solution (100 μM) with 98 μL plasma for NACE2i peptide (CP300638) and control compounds somatostatin acetate and procaine hydrochloride). All reaction plates containing mixtures of NACE2i, somatostatin acetate, and procaine hydrochloride and plasma were incubated at 37 °C in a water bath for 0, 15, 30, 60, 120, 240, and 360 min. Incubation was stopped with 4% H3PO4 and stop solution (200 ng/mL tolbutamide and 200 ng/mL labetalol in MeOH) to precipitate protein. Each plate was sealed and shaken for 20 min and then centrifuged at 3720 x g at 4 °C for 20 min. After centrifugation, the Apricot workstation was used to transfer 150 μL supernatant to each bioanalysis plate, which was then sealed and shaken for 10 min prior to LC-MS/MS analysis as per the manufacturer’s guidelines. LC: Shimadzu LC 30-AD, MS: QTRAP 6500 + , Autosampler: CTC PAL.

The mark [1] stands for this setting: male, monkey, pooled plasma, cynomolgus monkey plasma, n=2.
Setting [2] is: monkey, plasma (pooled, frozen), cynomolgus monkey plasma, n=2.

Where a name gives a salt, the structure may show the parent alone. Read-outs that look alike come from different tables or passages of the source.

For the compound `CCN(CC)CCOC(=O)c1ccc(N)cc1` [procaine hydrochloride, reference compound], the “% Remaining” value (cynomolgus monkey plasma, time 0 min, n=2) is listed as 100%. Under setting [1], this compound registered a share remaining at 0.25 h, 2 µM of 27.3%; a fraction remaining at 0.5 h, 2 µM of 3.07%; a fraction remaining at 1 h, 2 µM of 0.813%; a share remaining at 2 h, 2 µM of 0.381%. The share remaining at 6 h, 2 µM (male, monkey, pooled plasma, cynomolgus monkey plasma, time 360 min, n=2, read-out: % Remaining) came to 0.0209%. For the same compound, the share remaining at 6 h, 2 µM (male, monkey, pooled plasma, pooled male cynomolgus monkey plasma, 2 µL of 100 µM working solution + 98 µL plasma, 37 °C, 360 min, LC-MS/MS, read-out: % remaining in plasma after 360 min incubation) came out at 0%.

Under setting [2], `C[C@H](N)C(=O)NCC(=O)N[C@H]1CSSC[C@@H](C(=O)O)NC(=O)[C@H](CO)NC(=O)[C@H]([C@@H](C)O)NC(=O)[C@H](Cc2ccccc2)NC(=O)[C@H]([C@@H](C)O)NC(=O)[C@H](CCCCN)NC(=O)[C@H](Cc2c[nH]c3ccccc23)NC(=O)[C@H](Cc2ccccc2)NC(=O)[C@H](Cc2ccccc2)NC(=O)[C@H](CC(N)=O)NC(=O)[C@H](CCCCN)NC1=O` [somatostatin acetate, reference compound] displayed a share remaining at 0.25 h, 2 µM of 77.1%; a share remaining at 0.5 h, 2 µM of 61.3%; a share remaining at 1 h, 2 µM of 50.2%; a fraction remaining at 2 h, 2 µM of 29%. For the same compound, the amount remaining at 4 h, 2 µM (monkey, plasma (pooled, frozen), cynomolgus monkey plasma, time 240 min, n=2) is 18.1%. Under “monkey, plasma (pooled, frozen), cynomolgus monkey plasma, time 360 min, n=2, read-out: % Remaining”, the amount remaining at 6 h, 2 µM was determined as 3.81%. Besides, under “pooled male cynomolgus monkey plasma, 2 µL of 100 µM working solution + 98 µL plasma, 37 °C, 360 min, LC-MS/MS”, the “% remaining in plasma after 360 min incubation” value is 3.8%.
